Laboratory results: US20240335432A1, “THERAPEUTIC COMPOUND FOR NEURONAL CEROID LIPOFUSCINOSIS” (JCR PHARMACEUTICALS CO., LTD., priority 2021, published 2024)

Tests used:
CLN2 cells = experiment: Observation of autofluorescent material (lipofuscin) in CLN2 patient-derived cells by fluorescence microscopy; type: cell-based, human; conditions: CLN2 cells of 7 donors, 0.1, 1, 10 μM soraprazan, particularly at 10 μM, 10 days; FIGS. 1-8
Description: (§1) Ceroid lipofuscinosis type 2 patient-derived fibroblasts (CLN2 cells, 7 donors: GM09668, GM09669, GM09404, GM10570, GM10672, GM16485, GM16486, Coriell Institute) and normal human dermal fibroblasts (NHDF cells, Cat.No.C-12300, PromoCell GmbH) were cultured in MEM (10370088, Gibco) containing 15% FBS (HyClone) and 1×GlutaMAX™ I (Gibco) (hereafter referred to as MEM). Each cell was diluted to 0.5×10^5 cells/mL with MEM and 15 mL of each cell suspension was seeded in T75 flask (3123-075, IWAKI Inc.). Cells were cultured under 37° C., 5% CO2 conditions.
(§2) Soraprazan (Symeres) was dissolved in Dimethyl sulfoxide (DMSO) to prepare soraprazan stock solution with concentrations of 1, 10, and 100 mM. Each soraprazan stock solution was diluted 1/100 concentration with MEM to prepare media with final concentrations of 0.1, 1, and 10 μM of soraprazan (0.0367, 0.367, and 3.67 μg/mL, respectively). In addition, DMSO was diluted to 1/100 concentration with MEM, which was used as a negative control (0 μM soraprazan). Hereinafter the prepared media herein were referred to as soraprazan-containing media collectively.
Each of the CLN2 cells and the NHDF cells cultured in Example 2-1 was washed twice with Dulbecco's Phosphate-Buffered Saline (DPBS, Gibco) and detached from the flask using 1 mL of 0.25% Trypsin-EDTA (Gibco). […]

[1] = tested on: CLN2 cells (GM09668, GM09669, GM10570); experiment: Quantification of autofluorescence as % Fluorescent Area by image analysis (HALO); type: cell-based, human; conditions: for % Fluorescent Area: 10 days culture
Description: as §1, §2
Each of the CLN2 cells and the NHDF cells cultured in Example 2-1 was washed twice with Dulbecco's Phosphate-Buffered Saline (DPBS, Gibco) and detached from the flask using 1 mL of 0.25% Trypsin-EDTA (Gibco). After 10 mL of MEM was added, each cell was collected in a 15 mL tube and centrifuged at room temperature at 1000 rpm for 5 minutes, and the supernatant was removed. Then, each cell was suspended at cell density of 2×10^5 cells/mL in one of soraprazan-containing media (0, 0.1, 1, and 10 μM). Then the cell suspension was dispensed in 96-well plates (655956, Gliner) with 0.4×10^5 cells per well (200 μL per well). Cells were cultured at 37° C., in the presence of 5% CO2 for 10 days. During the culture, the medium in each well was exchanged to new corresponding soraprazan-containing medium at 3, 6, and 9 days after seeding.
The observation of autofluorescence was performed after changing the medium to FluoroBrite DMEM (A1896701, Gibco) under GFP detection conditions (BZX filter GFP, excitation wavelength:470/40 nm, absorption wavelength:525/50 nm, dichroic mirror: 495 nm).
To quantify the fluorescence intensity of autofluorescence, the same tests as in Examples 2-1 to 2-4 were performed on 3 types of CLN2 cells (GM09668, GM09669, GM10570) using soraprazan-containing medium, which contained 0, 1, and 10 μM of soraprazan, respectively. It was confirmed again that the fluorescent intensity was reduced in cells cultured in soraprazan-containing medium particularly at a concentration of 10 μM. Then, the ratio of the area where fluorescent was detected in the image (fluorescent area) to the total area of the image occupied by the cells (% Fluorescent Area) was calculated using the image analysis software HALO® (v3.2.1851.354, Indica Labs). As the analysis algorithms, Indica Labs-Area Quantification FL v2 1.6 was used. Herein the area where fluorescent was detected, irrespective of the fluorescent intensity, was defined as fluorescent area, which corresponds the area where a certain amount of lipofuscin existed.

[2] = tested on: PPT1 knockout (KO) HEK293T cells or PPT1 KO CHO cells; experiment: Lipofuscin fluorescence emission measurement in pathological model cells; type: cell-based; conditions: final soraprazan concentrations 100 μM-10 nM, versus 100% DMSO added
Description: Using mammalian cells in which a causative gene of neuronal ceroid lipofuscinosis has been knocked out as pathological model cells, a test can be performed in which an effect of removing lipofuscin accumulated in the cells by soraprazan is evaluated. For example, using PPT1 knockout (KO) HEK293T cells or PPT1 KO CHO cells, which are pathological model cells of neuronal ceroid lipofuscinosis type 1 (CLN1), a test can be performed in which an effect of removing lipofuscin accumulated in the cells by soraprazan is evaluated. Acquisition of a PPT1 KO cell line can be achieved using a conventionally known method.
Soraprazan is dissolved in dimethyl sulfoxide (DMSO) to a concentration of 10 mM. […]
Relative amounts of lipofuscin accumulated in cells can be measured by observing green autofluorescence emitted from the cells using a fluorescence microscope as described below. […] Then, under a fluorescence microscope, for example, excitation light with wavelength of 485 nm is irradiated to the cells and strength of emitted light from the cells with wavelength of 521 nm is measured. As a fluorescence microscope, for example, EVOS FLoid Imaging System (Thermo Fisher Scientific) can be used, and in this case, wavelengths of excitation light and observation light can be respectively set to 482 nm and 532 nm. […]

TPP1 knockout (KO) mice = experiment: Administration test using pathological model animals, fluorescence intensities of tissues; type: in vivo, mouse; conditions: oral or intravenous soraprazan versus negative control group
Description: A test can be performed in which an effect of soraprazan on removing lipofuscin accumulated in animal tissues by soraprazan is evaluated using mammals in which a causative gene of neuronal ceroid lipofuscinosis has been knocked out as pathological model animals. For example, a test can be performed in which an effect of soraprazan on removing lipofuscin accumulated in mouse tissues by soraprazan is evaluated using TPP1 knockout (KO) mice, which are neuronal ceroid lipofuscinosis type 2 (CLN2) pathological model cells. Generation of the TPP1 KO mice can be performed using a conventionally known method. […]
After a certain time period, for example 0.25, 0.5, 1, 2, 4, 6, 8, or 24 hours after the last administration of a chronic treatment between one week and 12 months, all TPP1 KO mice are anesthetized with isoflurane and perfused with saline from the left ventricle for 4-5 minutes for blood removal. After that, tissues (brain, heart, lungs, liver, spleen, kidneys, quadriceps, thymus, thoracic vertebrae, femur) and peripheral blood, of which fluorescence intensities are to be measured, are collected, and are stored in physiological saline to prevent drying. Fluorescence intensity measurement of lipofuscin is performed using an appropriate fluorescence intensity measuring instrument. […]

## COCCO[C@@H]1c2ccn3c(C)c(C)nc3c2N[C@H](c2ccccc2)[C@H]1O [Soraprazan, soraprazan]
CLN2 cells
  fluorescent intensity (autofluorescence, lipofuscin accumulation): markedly reduced
[1]; 3 types of CLN2 cells, 1 and 10 μM soraprazan, particularly at 10 μM, FIGS. 9-11
  fluorescent intensity (autofluorescence): reduced
[1]; GM09668 cells, 1 μM soraprazan
  % Fluorescent Area: 0.944%
[1]; GM09668 cells, 10 μM soraprazan
  % Fluorescent Area: 2.07%
[1]; GM09669 cells, 1 μM soraprazan
  % Fluorescent Area: 10.9%
[1]; GM09669 cells, 10 μM soraprazan
  % Fluorescent Area: 2.34%
[1]; GM10570 cells, 1 μM soraprazan
  % Fluorescent Area: 12.3%
[1]; GM10570 cells, 10 μM soraprazan
  % Fluorescent Area: 0.766%
[2]
  amount of lipofuscin accumulated in the cells (fluorescence intensity): decreases according to the concentration of soraprazan
TPP1 knockout (KO) mice
  amount of lipofuscin accumulated in each of the tissues (fluorescence intensity): reduces the amount of lipofuscin
